Columns and labels:
[1] = test system: poacic acid-resistant mutant (SUR1); test: Poacic acid-resistant mutant (PAr) with SNP in SUR1; assay type: cell-based, Saccharomyces cerevisiae
Procedure: Agar containing 500 μg/mL poacic acid was inoculated with ˜1 million cells of yeast (control strain). After 1 wk, two colonies were found growing on the agar. Single-colony isolates were obtained and found to be resistant to poacic acid. For whole-genome sequencing, single-colony isolates of poacic acid-resistant mutant, the caspofungin-resistant mutant, and the control strain (WT) were grown in triplicate 200-μL cultures and pooled for genomic DNA extraction (Epicentre MasterPure Yeast Kit; MPY80200). The genomic DNA was prepared for Illumina whole-genome sequencing using the Illumina TruSeqKkit (FC-121-3001) and sequenced by 150-bp paired-end reads on the MiSeq platform.
To determine mutations in the drug-resistant mutants, read quality analysis was performed using FastQC (www.bioinformatics.babraharm.ac.uk/projects/fastqc/). Short reads were examined for quality and trimmed at the 3′ end when average base quality in a 3-nt window fell below Q30. Short reads were mapped to the standard S. cerevisiae reference genome, strain S288c (obtained from the National Center for Biotechnology Information RefSeq repository), using Burrows-Wheeler Alignment (BWA version 0.6.2) (Li et al. 2009) using the default parameters, with the exception of the fraction of missing alignments threshold, which was set at 0.08 (−n in bwa aln). […]

S. sclerotiorum = test: Inhibition of S. sclerotiorum in planta on detached soybean leaves; assay type: in vivo, Sclerotinia sclerotiorum on soybean (Williams 82); conditions: single aerosol treatment 500 μg/mL before inoculation, up to 120 h postinoculation
Procedure: (§1) To test inhibition in liquid culture, a dose curve of 0, 125, 250, and 500 μg/mL poacic acid in 100 mL potato dextrose broth (n=3) was used. Cultures of S. sclerotiorum strain 1980 were inoculated with 100 μL homogenized mycelia and grown at 25° C. for 48 h. The mycelia in the liquid media were dried and weighed. The growth inhibition of poacic acid on solid agar cultures (potato dextrose agar) was assessed by generating replicate plates (n=3) containing 0, 125, 250, and 500 μg/mL poacic acid. Plates were inoculated with an actively growing plug of S. sclerotiorum and grown at 25° C. The mycelial radial growth after 48 h was measured Inhibition of S. sclerotiorum in planta was tested by inoculating detached soybean leaves of the commercial variety Williams 82 with an agar plug of actively growing S. sclerotiorum mycelia. Leaves were treated one time before inoculation with either an aerosol spray of water with DMSO (control) or a 500 μg/mL solution of poacic acid. Leaves were incubated in a moist environment, and lesion development was monitored up to 120 h postinoculation. […] The growth inhibition of poacic acid was assessed at 0, 500, 1,000, and 1,500 μg/mL in replicate plates (n=3). […] Colony diameter was monitored for each treatment in a time-course experiment. […]

[2] = test system: S. sclerotiorum strain 1980; test: Growth inhibition of S. sclerotiorum in liquid and agar culture; assay type: cell-based, Sclerotinia sclerotiorum; conditions: 0, 125, 250, 500 μg/mL, 48 h, P<0.01
Procedure: as §1

[3] = test system: S. cerevisiae (BY4741 his3Δ::KanMX); test: Multivariate morphological analysis (CalMorph); assay type: cell-based, Saccharomyces cerevisiae
Procedure: Cells of budding yeast S. cerevisiae (BY4741 his3Δ::KanMX; hereafter, his3Δ) were cultured in 2 mL 1% Bacto yeast extract (BD Biosciences), 2% Bacto peptone (BD Biosciences), and 2% glucose (YPD) with 0, 25, 50, 75, 100, or 125 μg/mL poacic acid or a DMSO control at 25° C. for 16 h until the early log phase. The maximum concentration of the drug (125 μg/mL) was determined based on the growth inhibition rates (10%). Cell fixation, staining, and observation were performed (n=5) as described previously (Ohya et al. 2005). Images of cell shape, actin, and nuclear DNA were analyzed using the image processing software CalMorph (version 1.2), which extracted a total of 501 morphological quantitative values from at least 200 individual cells in each experiment (Ohya et al. 2005). Images were processed using Photoshop CS2 (Adobe Systems) for illustrative purposes.
To assess the morphological similarity between the cells treated with poacic acid and nonessential deletion mutants or cells treated with other cell wall-affecting drugs, their morphological profiles were compared as described previously (Ohnuki et al. 2010). To identify functional gene clusters, the most significant similar mutants (43 genes, P<0.01 after Bonferroni correction, t test) were selected as a query for GO term analysis (GO term finder in the Saccharomyces genome database).
To extract independent and characteristic features of morphology induced by poacic acid, a two-step principal component analysis was performed as described previously (Ohnuki et al. 2012). To compare phenotypic noise in the yeast population (poacic acid vs. DMSO), the noise score was calculated as described previously (Yvert et al. 2013).

[4] = Cell-free glucan staining (binding to purified yeast glucan); conditions: 0.125% (wt/vol) poacic acid, fluorescence
Procedure: (§2) β-1,3-Glucan was stained with aniline blue (016-21302; Wako Chemicals) as described previously (Watanabe et al. 2001) with slight modification. Briefly, log-phase yeast cells (his3Δ) were cultured in YPD with poacic acid (125 μg/mL) at 25° C. Then, cells were collected at 0, 2, 4, and 6 h after treatment and stained with aniline blue without fixation as described previously (Okada et al. 2015). Cells mounted on a glass slide were exposed to UV for 30 s to bleach out poacic acid fluorescence before acquiring images. Staining of chitin or mannoproteins with calcofluor white (F3543; Sigma-Aldrich) or Alexa594-ConA (C11253; Life Technologies), respectively, was performed as described previously (Okada et al. 2015). For cell-free glucan staining, yeast glucan (G0331; Tokyo Chemical Industry) was suspended to 0.125% (wt/vol) poacic acid and observed under a fluorescent microscope using a regular DAPI filter set (Carl Zeiss).

yeast cells (his3Δ) = test: Mannoprotein and glucan staining (aniline blue, Con A); assay type: cell-based, Saccharomyces cerevisiae; conditions: 125 μg/mL, 6 h
Procedure: as §2

For `COc1cc(/C=C/c2cc(/C=C/C(=O)O)cc(OC)c2O)ccc1O` [poacic acid, (E)-4-Hydroxy-3-{2-[(E)-4-hydroxy-3-methoxystyryl]}-5-methoxycinnamic acid], the “resistance compared with the control strain” value ([1]; PAr mutant with SNP in SUR1) was “increased resistance”, the “colony formation on agar” value ([1]; spontaneous chain-termination mutant in SUR1, agar with 500 μg poacic acid/mL) was “able to form colonies” and the “lesion development on detached soybean leaves” value (S. sclerotiorum) was “markedly reduced lesion development”. For the same compound, the “colony radial growth on agar plates” value [2] was “dose-dependent decrease”, the “fungal mass (mycelia weight) in liquid culture” value [2] was “dose-dependent decrease” and the bud neck size ([3]; 0-125 μg/mL, 16 h) was “dose-dependent increase in bud neck size”. For the same compound, the “heterogeneity of cell morphology” value ([3]; 0-125 μg/mL, 16 h) was “heterogeneous morphologies”, the inhibition at 125 µg/mL ([3]; Saccharomyces cerevisiae, read-out: growth inhibition rates) was 10% and the “morphological correlation with other cell wall-affecting compounds” value ([3]; vs micafungin, echinocandin B and other cell wall-affecting compounds) was “lower morphological correlations”. The “binding to purified yeast glucan” value [4] was “directly binds β-1,3-glucan”, the “glucan staining with aniline blue in buds” value (yeast cells (his3Δ)) was “significantly decreased glucan staining in buds” and the “mannoprotein staining with Con A” value (yeast cells (his3Δ)) was “does not change mannoprotein staining”.

From patent publication US11985974B2, “Antimicrobial ferulic acid derivatives and uses thereof” (WISCONSIN ALUMNI RESEARCH FOUNDATION, priority 2014, dated 2024)
